Laboratory results from PubChem BioAssay (NCI).
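1) Cells in 96-well plates. 2) Compound, 48 h, 5 concentrations. 3) Linear interpolation between surrounding doses. 4) Unreached endpoint = highest concentration. At the GI50, growth is halved. TGI is the concentration that stops growth completely.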

Experiments:
Assay in all cases: DTP human tumour cell line panel, 48 h
786-0 renal = system: 786-0 renal
A498 renal = system: A498 renal
A549 NSCLC = system: A549 NSCLC
ACHN renal = system: ACHN renal
BT-549 breast = system: BT-549 breast
CAKI-1 renal = system: CAKI-1 renal
CCRF-CEM leukemia = system: CCRF-CEM leukemia
COLO 205 colon = system: COLO 205 colon
DU-145 prostate = system: DU-145 prostate
EKVX NSCLC = system: EKVX NSCLC
HCC-2998 colon = system: HCC-2998 colon
HCT-116 colon = system: HCT-116 colon
HCT-15 colon = system: HCT-15 colon
HL-60(TB) leukemia = system: HL-60(TB) leukemia
HOP-62 NSCLC = system: HOP-62 NSCLC
HOP-92 NSCLC = system: HOP-92 NSCLC
HS 578T breast = system: HS 578T breast
HT29 colon = system: HT29 colon
IGROV1 ovarian = system: IGROV1 ovarian
K-562 leukemia = system: K-562 leukemia
KM12 colon = system: KM12 colon
LOX IMVI melanoma = system: LOX IMVI melanoma
M14 melanoma = system: M14 melanoma
MALME-3M melanoma = system: MALME-3M melanoma
MCF7 breast = system: MCF7 breast
MDA-MB-231 breast = system: MDA-MB-231 breast
MDA-MB-435 = system: MDA-MB-435
MDA-MB-468 breast = system: MDA-MB-468 breast
MOLT-4 leukemia = system: MOLT-4 leukemia
NCI-H226 lung = system: NCI-H226 lung
NCI-H23 lung = system: NCI-H23 lung
NCI-H460 lung = system: NCI-H460 lung
NCI-H522 lung = system: NCI-H522 lung
NCI/ADR-RES ovarian = system: NCI/ADR-RES ovarian
OVCAR-3 ovarian = system: OVCAR-3 ovarian
OVCAR-4 ovarian = system: OVCAR-4 ovarian
OVCAR-5 ovarian = system: OVCAR-5 ovarian
OVCAR-8 ovarian = system: OVCAR-8 ovarian
PC-3 prostate = system: PC-3 prostate
RPMI-8226 leukemia = system: RPMI-8226 leukemia
RXF 393 renal = system: RXF 393 renal
SF-268 CNS = system: SF-268 CNS
SF-295 CNS = system: SF-295 CNS
SF-539 CNS = system: SF-539 CNS
SK-MEL-2 melanoma = system: SK-MEL-2 melanoma
SK-MEL-28 melanoma = system: SK-MEL-28 melanoma
SK-MEL-5 melanoma = system: SK-MEL-5 melanoma
SK-OV-3 ovarian = system: SK-OV-3 ovarian
SN12C renal = system: SN12C renal
SNB-19 CNS = system: SNB-19 CNS
SNB-75 CNS = system: SNB-75 CNS
SR leukemia = system: SR leukemia
SW-620 colon = system: SW-620 colon
T-47D breast = system: T-47D breast
TK-10 renal = system: TK-10 renal
U251 CNS = system: U251 CNS
UACC-257 melanoma = system: UACC-257 melanoma
UACC-62 melanoma = system: UACC-62 melanoma
UO-31 renal = system: UO-31 renal

COc1ccccc1NC(=O)N/N=C/c1c[nH]c2ccccc12
GI50 (786-0 renal): 1.23 µM
TGI (786-0 renal): 3.77 µM
GI50 (A498 renal): 10.1 µM
TGI (A498 renal): 22.4 µM
GI50 (A549 NSCLC): 1.22 µM
TGI (A549 NSCLC): 18.2 µM
GI50 (ACHN renal): 3.13 µM
TGI (ACHN renal): 15.8 µM
GI50 (BT-549 breast): 0.194 µM
TGI (BT-549 breast): 4.69 µM
GI50 (CAKI-1 renal): 2.53 µM
TGI (CAKI-1 renal): 13.7 µM
GI50 (CCRF-CEM leukemia): 0.379 µM
TGI (CCRF-CEM leukemia): 12.9 µM
GI50 (COLO 205 colon): 0.766 µM
TGI (COLO 205 colon): 4.44 µM
GI50 (DU-145 prostate): 2.56 µM
TGI (DU-145 prostate): 12.4 µM
GI50 (EKVX NSCLC): 2.2 µM
TGI (EKVX NSCLC): 13.9 µM
GI50 (HCC-2998 colon): 1.42 µM
TGI (HCC-2998 colon): 14.2 µM
GI50 (HCT-116 colon): 0.405 µM
TGI (HCT-116 colon): 3.61 µM
GI50 (HCT-15 colon): 0.348 µM
TGI (HCT-15 colon): 12 µM
GI50 (HL-60(TB) leukemia): 0.304 µM
TGI (HL-60(TB) leukemia): 3.51 µM
GI50 (HOP-62 NSCLC): 3.01 µM
TGI (HOP-62 NSCLC): 18.9 µM
GI50 (HOP-92 NSCLC): 1.85 µM
TGI (HOP-92 NSCLC): 10.4 µM
GI50 (HS 578T breast): 3.05 µM
TGI (HS 578T breast): 25.7 µM
GI50 (HT29 colon): 0.427 µM
TGI (HT29 colon): 10.6 µM
GI50 (IGROV1 ovarian): 1.66 µM
TGI (IGROV1 ovarian): 20.5 µM
GI50 (K-562 leukemia): 0.229 µM
TGI (K-562 leukemia): 16.4 µM
GI50 (KM12 colon): 0.574 µM
TGI (KM12 colon): 11 µM
GI50 (LOX IMVI melanoma): 0.803 µM
TGI (LOX IMVI melanoma): 14.9 µM
GI50 (M14 melanoma): 0.365 µM
TGI (M14 melanoma): 10.8 µM
GI50 (MALME-3M melanoma): 0.559 µM
TGI (MALME-3M melanoma): 16.9 µM
GI50 (MCF7 breast): 0.423 µM
TGI (MCF7 breast): 12.3 µM
GI50 (MDA-MB-231 breast): 0.824 µM
TGI (MDA-MB-231 breast): 12.6 µM
GI50 (MDA-MB-435): 0.226 µM
TGI (MDA-MB-435): 0.647 µM
GI50 (MDA-MB-468 breast): 0.236 µM
TGI (MDA-MB-468 breast): 2.74 µM
GI50 (MOLT-4 leukemia): 0.381 µM
TGI (MOLT-4 leukemia): 11.9 µM
GI50 (NCI-H226 lung): 4.11 µM
TGI (NCI-H226 lung): 23 µM
GI50 (NCI-H23 lung): 1.45 µM
TGI (NCI-H23 lung): 10.8 µM
GI50 (NCI-H460 lung): 0.961 µM
TGI (NCI-H460 lung): 12.6 µM
GI50 (NCI-H522 lung): 0.177 µM
TGI (NCI-H522 lung): 0.428 µM
GI50 (NCI/ADR-RES ovarian): 0.299 µM
TGI (NCI/ADR-RES ovarian): 1.31 µM
GI50 (OVCAR-3 ovarian): 0.451 µM
TGI (OVCAR-3 ovarian): 5.47 µM
GI50 (OVCAR-4 ovarian): 4.34 µM
TGI (OVCAR-4 ovarian): 19.9 µM
GI50 (OVCAR-5 ovarian): 2.72 µM
TGI (OVCAR-5 ovarian): 15.5 µM
GI50 (OVCAR-8 ovarian): 2.12 µM
TGI (OVCAR-8 ovarian): 13.9 µM
GI50 (PC-3 prostate): 1.6 µM
TGI (PC-3 prostate): 14.7 µM
GI50 (RPMI-8226 leukemia): 1.39 µM
TGI (RPMI-8226 leukemia): 6.09 µM
GI50 (RXF 393 renal): 1.66 µM
TGI (RXF 393 renal): 6.45 µM
GI50 (SF-268 CNS): 3.06 µM
TGI (SF-268 CNS): 20.6 µM
GI50 (SF-295 CNS): 0.816 µM
TGI (SF-295 CNS): 5.9 µM
GI50 (SF-539 CNS): 0.704 µM
TGI (SF-539 CNS): 2.86 µM
GI50 (SK-MEL-2 melanoma): 0.67 µM
TGI (SK-MEL-2 melanoma): 4.92 µM
GI50 (SK-MEL-28 melanoma): 1.57 µM
TGI (SK-MEL-28 melanoma): 17.6 µM
GI50 (SK-MEL-5 melanoma): 1.04 µM
TGI (SK-MEL-5 melanoma): 5.52 µM
GI50 (SK-OV-3 ovarian): 2.48 µM
TGI (SK-OV-3 ovarian): 15.4 µM
GI50 (SN12C renal): 1.1 µM
TGI (SN12C renal): 12.1 µM
GI50 (SNB-19 CNS): 2.58 µM
TGI (SNB-19 CNS): 16.1 µM
GI50 (SNB-75 CNS): 3.43 µM
TGI (SNB-75 CNS): 20.9 µM
GI50 (SR leukemia): 0.215 µM
TGI (SR leukemia): 12.4 µM
GI50 (SW-620 colon): 0.479 µM
TGI (SW-620 colon): 18.5 µM
GI50 (T-47D breast): 1.04 µM
TGI (T-47D breast): > 100 µM
GI50 (TK-10 renal): 4.73 µM
TGI (TK-10 renal): 23.8 µM
GI50 (U251 CNS): 1.45 µM
TGI (U251 CNS): 12.5 µM
GI50 (UACC-257 melanoma): 10.7 µM
TGI (UACC-257 melanoma): 34.8 µM
GI50 (UACC-62 melanoma): 0.473 µM
TGI (UACC-62 melanoma): 12.5 µM
GI50 (UO-31 renal): 3.28 µM
TGI (UO-31 renal): 18.4 µM
